Values joined by “and” are separate entries in the source; they are usually repeats but may differ in a detail not shown here. Equal entries are not always repeated. Where two headings read alike, the source gives them in different places. Where a SMILES comes first, the peptide text is derived from it. Where no end group is shown, it is not given here. [ ]: non-standard residue; d: D form. Apa = (S)-2-amino-4[(2-amino)pyrimidinyl]methylalanine; Phe(4-guanidino) = N=C(N)Nc1ccc(C[C@H](N)C(=O)O)cc1; Cha = N[C@@H](CC1CCCCC1)C(=O)O; Orn = NCCC[C@H](N)C(=O)O

The values that follow come from patent publication US8143374B2, “Polypeptide derivatives of parathyroid hormone (PTH)” (The General Hospital Corporation, priority 2006, dated 2012).

This assay deals with T1, PTHR-delNt (Homo sapiens, UniProt Q03431, DEL24-181).
T1 construct: expressed in transfected cells; host or cells: COS-7 cells, transient co-transfection; membranes prepared
T1 sequence (Q03431 with tags, fused parts or gaps DEL24-181): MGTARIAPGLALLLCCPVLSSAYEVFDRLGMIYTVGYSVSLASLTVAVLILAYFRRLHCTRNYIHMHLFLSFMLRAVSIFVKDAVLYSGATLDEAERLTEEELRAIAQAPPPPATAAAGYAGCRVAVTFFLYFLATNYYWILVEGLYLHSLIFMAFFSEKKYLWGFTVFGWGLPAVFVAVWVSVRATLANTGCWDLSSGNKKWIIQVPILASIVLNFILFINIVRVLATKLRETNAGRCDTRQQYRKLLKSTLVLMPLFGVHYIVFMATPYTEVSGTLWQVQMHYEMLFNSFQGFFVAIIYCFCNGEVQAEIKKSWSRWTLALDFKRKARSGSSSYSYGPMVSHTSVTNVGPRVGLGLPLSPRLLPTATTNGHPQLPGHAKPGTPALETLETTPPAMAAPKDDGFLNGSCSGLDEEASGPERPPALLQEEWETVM
As to the kind of experiment: Competition binding in COS-7 cell membranes with 125I-[Aib1,3,M]PTH(1-15)NH2 tracer. Conditions: for IC50: COS-7 membranes cotransfected with negative-dominant Gαs; for reduction (alteration) of binding affinity for PTHR-delNt relative to parent peptide: versus the respective parent peptide. In outline:
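IC50 from four-parameter logistic fitting of specific tracer binding, extrapolated to maximal [Aib1,3,M]PTH(1-15)NH2 inhibition when displacement was incomplete. Competitor peptides (3×10^−9 to 1×10^−5 M) and 125I-[Aib1,3,M]PTH(1-15)NH2 were incubated 90 min, 21 °C, with membranes (20 µg/well) of COS-7 cells expressing N-terminally truncated (Δ24–181) human PTHR with dominant-negative Gαs; 1×10^−6 M unlabeled tracer peptide defined non-specific binding.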

Setting [1] is: hPTH(1-31)NH2 analogs, read-out: PTHR-delNT (COS-7) IC50.
Where [2] appears, read: [Ala1,Arg19]hPTH(1-31)NH2 analogs, read-out: PTHR-delNT (COS-7) IC50.

As for “SVSEIQLMHNLGKHLNSMERVEWLRAKLQDV-NH2 [Lys^26→Ala]”, the IC50 (usually the point on the concentration scale where inhibition reaches its midpoint) under setting [1] came to 6.21 µM.

Consider “SVSEIQLMHNLGKHLNSMERVEWLRKKAQDV-NH2 [Leu^28→Ala]”, for which, under setting [1], the IC50 came out at 3.46 µM.

Turning to “AVSEIQLMHNLGKHLNSMRRVEWLRKELQDV-NH2 [Lys^27→Glu]”, under setting [2], the IC50 is 1.27 µM. Regarding “SVSEIQLMHNLGKHLNSMARVEWLRKKLQDV-NH2 [Glu^19→Ala]”, the IC50 under setting [1] was found to be 2.94 µM. For the compound `CC[C@H](C)[C@H](NC(=O)[C@H](CCC(=O)O)NC(=O)[C@H](CO)NC(=O)[C@@H](NC(=O)[C@H](C)N)C(C)C)C(=O)N[C@@H](CCC(N)=O)C(=O)N[C@@H](CC(C)C)C(=O)N[C@@H](CCSC)C(=O)N[C@@H](Cc1c[nH]cn1)C(=O)N[C@@H](CC(N)=O)C(=O)N[C@@H](CC(C)C)C(=O)NCC(=O)N[C@@H](CCCCN)C(=O)N[C@@H](Cc1c[nH]cn1)C(=O)N[C@@H](CC(C)C)C(=O)N[C@@H](CC(N)=O)C(=O)N[C@@H](CO)C(=O)N[C@@H](CCSC)C(=O)N[C@@H](CCCNC(=N)N)C(=O)N[C@@H](CC1CCCCC1)C(=O)N[C@H](C(=O)N[C@@H](CCC(=O)O)C(=O)N[C@@H](Cc1c[nH]c2ccccc12)C(=O)N[C@@H](CC(C)C)C(=O)N[C@@H](CCCNC(=N)N)C(=O)N[C@@H](CCCCN)C(=O)N[C@@H](CCCCN)C(=O)N[C@@H](CC(C)C)C(=O)N[C@@H](CCC(N)=O)C(=O)N[C@@H](CC(=O)O)C(=O)N[C@H](C(N)=O)C(C)C)C(C)C` [Arg^20→Cha, AlaValSerGluIleGlnLeuMetHisAsnLeuGlyLysHisLeuAsnSerMetArgChaValGluTrpLeuArgLysLysLeuGlnAspVal] (H-AVSEIQLMHNLGKHLNSMR[Cha]VEWLRKKLQDV-NH2; N-terminus assumed), the “reduction (alteration) of binding affinity for PTHR-delNt relative to parent peptide” value (COS-7 membranes) is given as “three-fold or less”. Further, the IC50 under setting [2] was determined as 0.632 ± 0.079 µM. Turning to “SVSEIQLMHNLGKHLNSMERVEWLRKKLADV-NH2 [Gln^29→Ala]”, under setting [1], the IC50 was determined as 1.93 µM. Consider “AVSEIQLMHNLGKHLNSMRRVEWLEKKLQDV-NH2 [Arg^25→Glu]”, for which the “reduction (alteration) of binding affinity for PTHR-delNt relative to parent peptide” value (COS-7 membranes) is given as “about four-fold”. Further, the IC50 under setting [2] was found to be 1.63 µM. Turning to “SVSEIQLMHNLGKHLNSMRRVAWLRKKLQDV-NH2 [Glu^19,22→Arg,Ala]”, under setting [1], the IC50 worked out at 0.36 ± 0.019 µM.

Consider “SVSEIQLMHNLGKHLNSMEQVEWLRKKLQDV-NH2 [Arg^20→Gln]”, for which the IC50 under setting [1] came out at 10.3 µM. With “SVSEIQLMHNLGKHLNSMARVAWLRKKLQDV-NH2 [Glu^19,22→Ala,Ala]”, the IC50 under setting [1] was determined as 0.619 ± 0.075 µM. For the compound “SVSEIQLMHNLGKHLNSMERVEWLRKALQDV-NH2 [Lys^27→Ala]”, under setting [1], the IC50 was 7.29 µM.

On to “AVSEIQLMHNLGKHLNSMRRVEWERKKLQDV-NH2 [Leu^24→Glu]”, for which, where the note is “COS-7 membranes”, the “effect on binding to PTHR-delNt (in words)” value was “only mildly impaired binding to PTHR-delNt” and the “reduction (alteration) of binding affinity for PTHR-delNt relative to parent peptide” value was “less than three-fold”. The IC50 under setting [2] came to 1.04 µM.

Consider `CC[C@H](C)[C@H](NC(=O)[C@H](CCC(=O)O)NC(=O)[C@H](CO)NC(=O)[C@@H](NC(=O)[C@@H](N)CO)C(C)C)C(=O)N[C@@H](CCC(N)=O)C(=O)N[C@@H](CC(C)C)C(=O)N[C@@H](CCSC)C(=O)N[C@@H](Cc1c[nH]cn1)C(=O)N[C@@H](CC(N)=O)C(=O)N[C@@H](CC(C)C)C(=O)NCC(=O)N[C@@H](CCCCN)C(=O)N[C@@H](Cc1c[nH]cn1)C(=O)N[C@@H](CC(C)C)C(=O)N[C@@H](CC(N)=O)C(=O)N[C@@H](CO)C(=O)N[C@@H](CCSC)C(=O)N[C@@H](CCC(=O)O)C(=O)N[C@@H](CCCN)C(=O)N[C@H](C(=O)N[C@@H](CCC(=O)O)C(=O)N[C@@H](Cc1c[nH]c2ccccc12)C(=O)N[C@@H](CC(C)C)C(=O)N[C@@H](CCCNC(=N)N)C(=O)N[C@@H](CCCCN)C(=O)N[C@@H](CCCCN)C(=O)N[C@@H](CC(C)C)C(=O)N[C@@H](CCC(N)=O)C(=O)N[C@@H](CC(=O)O)C(=O)N[C@H](C(N)=O)C(C)C)C(C)C` [Arg^20→Orn] (H-SVSEIQLMHNLGKHLNSME[Orn]VEWLRKKLQDV-NH2; N-terminus assumed), for which the IC50 under setting [1] is 5.53 µM. On to “SVSEIQLMHNLGKHLNSMERAEWLRKKLQDV-NH2 [Val^21→Ala]”, for which the IC50 under setting [1] worked out at 5.69 µM.

In the case of “SVSEIQLMHNLGKHLNSMERVEWLAKKLQDV-NH2 [Arg^25→Ala]”, the IC50 under setting [1] is 7.18 µM. Still for that read-out and setting: the value for “Arg^20→Apa: hPTH(1-31)NH2 analog with Arg^20 replaced by (S)-2-amino-4[(2-amino)pyrimidinyl]methylalanine (Apa) (SVSEIQLMHNLGKHLNSME[Apa]VEWLRKKLQDV-NH2)” was 5.74 µM; that for `CC[C@H](C)[C@H](NC(=O)[C@H](CCC(=O)O)NC(=O)[C@H](CO)NC(=O)[C@@H](NC(=O)[C@@H](N)CO)C(C)C)C(=O)N[C@@H](CCC(N)=O)C(=O)N[C@@H](CC(C)C)C(=O)N[C@@H](CCSC)C(=O)N[C@@H](Cc1c[nH]cn1)C(=O)N[C@@H](CC(N)=O)C(=O)N[C@@H](CC(C)C)C(=O)NCC(=O)N[C@@H](CCCCN)C(=O)N[C@@H](Cc1c[nH]cn1)C(=O)N[C@@H](CC(C)C)C(=O)N[C@@H](CC(N)=O)C(=O)N[C@@H](CO)C(=O)N[C@@H](CCSC)C(=O)N[C@@H](CCC(=O)O)C(=O)N[C@@H](Cc1ccc(NC(=N)N)cc1)C(=O)N[C@H](C(=O)N[C@@H](CCC(=O)O)C(=O)N[C@@H](Cc1c[nH]c2ccccc12)C(=O)N[C@@H](CC(C)C)C(=O)N[C@@H](CCCNC(=N)N)C(=O)N[C@@H](CCCCN)C(=O)N[C@@H](CCCCN)C(=O)N[C@@H](CC(C)C)C(=O)N[C@@H](CCC(N)=O)C(=O)N[C@@H](CC(=O)O)C(=O)N[C@H](C(N)=O)C(C)C)C(C)C` [Arg^20→Gph] (H-SVSEIQLMHNLGKHLNSME[Phe(4-guanidino)]VEWLRKKLQDV-NH2; N-terminus assumed) was 2.05 µM.

Take “SVSEIQLMHNLGKHLNSMEKVEWLRKKLQDV-NH2 [Arg^20→Lys]”: the IC50 under setting [1] stood at 7.11 µM. As for “SVSEIQLMHNLGKHLNSMERVEWARKKLQDV-NH2 [Leu^24→Ala]”, the “reduction (alteration) of binding affinity for PTHR-delNt relative to parent peptide” value (COS-7 membranes) is listed as “only two-fold”. Besides, the IC50 under setting [1] amounted to 8.76 µM. Turning to “SVSEIQLMHNLGKHLNSMEEVEWLRKKLQDV [Arg^20→Glu]”, the “reduction (alteration) of binding affinity for PTHR-delNt relative to parent peptide” value is given as “less than three-fold” (COS-7 membranes) and “approximately four-fold reduction” (COS-7 membranes, listed as Arg^20 to Glu substitution in PTH(1-31)NH2). Besides, the IC50 reads like this: under setting [2], 0.776 ± 0.38 µM; under setting [1], 14.7 µM. With “SVSEIQLMHNLGKHLNSMEAVEWLRKKLQDV-NH2 [Arg^20→Ala]”, under “COS-7 membranes”, the “reduction (alteration) of binding affinity for PTHR-delNt relative to parent peptide” value was “approximate five-fold reduction”. Besides, under setting [1], the IC50 came out at 19.3 µM. In the case of “SVSEIQLMHNLGKHLNSMERVAWLRKKLQDV-NH2 [Glu^22→Ala]”, the IC50 under setting [1] was found to be 5.86 µM.

Turning to “SVSEIQLMHNLGKHLNSMERVEALRKKLQDV-NH2 [Trp^23→Ala]”, the “reduction (alteration) of binding affinity for PTHR-delNt relative to parent peptide” value (COS-7 membranes) is on record as “only two-fold”. Further, the IC50 under setting [1] was determined as 7.36 µM. Take “AVSEIQLMHNLGKHLNSMRREEWLRKKLQDV-NH2 [Val^21→Glu]”: the “reduction (alteration) of binding affinity for PTHR-delNt relative to parent peptide” value (COS-7 membranes) is recorded as “about four-fold”. Under “PTHR-delNT (COS-7) IC50, [Ala1,Arg19]hPTH(1-31)NH2 analogs”, the IC50 amounted to 1.61 µM.

In the case of “SVSEIQLMHNLGKHLNSMRRVEWLRKKLQDV-NH2 [Glu^19→Arg]”, the IC50 under setting [1] was 1.23 µM. For “AVSEIQLMHNLGKHLNSMRRVEWLREKLQDV-NH2 [Lys^26→Glu]”, under setting [2], the IC50 came out at 0.832 ± 0.215 µM.

On to “AVSEIQLMHNLGKHLNSMERVEWLRKKLQDV-NH2 [Arg^19→Glu]”, for which, for the setting “COS-7 membranes”, the “reduction (alteration) of binding affinity for PTHR-delNt relative to parent peptide” value is 50 fold and 90 fold. For the compound “SVSEIQLMHNLGKHLNSMERVEWLRKKLQDA-NH2 [Val^31→Ala]”, the IC50 under setting [1] was determined as 4.91 µM. With `CC[C@H](C)[C@H](NC(=O)[C@H](CCC(=O)O)NC(=O)[C@H](CO)NC(=O)[C@@H](NC(=O)[C@H](C)N)C(C)C)C(=O)N[C@@H](CCC(N)=O)C(=O)N[C@@H](CC(C)C)C(=O)N[C@@H](CCSC)C(=O)N[C@@H](Cc1c[nH]cn1)C(=O)N[C@@H](CC(N)=O)C(=O)N[C@@H](CC(C)C)C(=O)NCC(=O)N[C@@H](CCCCN)C(=O)N[C@@H](Cc1c[nH]cn1)C(=O)N[C@@H](CC(C)C)C(=O)N[C@@H](CC(N)=O)C(=O)N[C@@H](CO)C(=O)N[C@@H](CCSC)C(=O)N[C@@H](CCCNC(=N)N)C(=O)N[C@@H](CCCNC(=N)N)C(=O)N[C@H](C(=O)N[C@@H](CCC(=O)O)C(=O)N[C@@H](Cc1c[nH]c2ccccc12)C(=O)N[C@@H](CC(C)C)C(=O)N[C@@H](CCCNC(=N)N)C(=O)N[C@@H](CCCCN)C(=O)N[C@@H](CCCCN)C(=O)N[C@@H](CC(C)C)C(=O)N[C@@H](CCC(N)=O)C(=O)N[C@@H](CC1CCCCC1)C(=O)N[C@H](C(N)=O)C(C)C)C(C)C` [Asp^30→Cha] (H-AVSEIQLMHNLGKHLNSMRRVEWLRKKLQ[Cha]V-NH2; N-terminus assumed), the IC50 under setting [2] came out at 0.305 ± 0.126 µM.
